Results as given in ChEMBL document CHEMBL5154852, “Design, synthesis, and biological evaluations of substituted pyrazoles as pyrrolomycin analogues against staphylococcal biofilm” (Eur J Med Chem, 2022).
Values after ≈ are worked out from the molar mass of the structure shown. Values joined by “and” are separate entries in the source; they are usually repeats but may differ in a detail not shown here. Equal entries are not always repeated. Active and inactive are the calls of the source. No cut-off for these calls is given here.

Experiments:
Staphylococcus aureus [1] = assay: Antibacterial activity against vancomycin-susceptible methicillin-susceptible Staphylococcus aureus Newman incubated for 24 hrs by broth microdilution method; assay type: functional
Staphylococcus aureus [2] = assay: Antimicrobial activity against methicillin-resistant Staphylococcus aureus USA300 LAC incubated for 24 hrs by broth microdilution method; assay type: functional
Staphylococcus aureus [3] = assay: Antibacterial activity against vancomycin-intermediate Staphylococcus aureus Mu50 incubated for 24 hrs by broth microdilution method; assay type: functional
[4] = Cytotoxicity against human L02 cells after 72 hrs by CCK-8 assay; assay type: toxicity, cell-based
Enterococcus faecalis [5] = assay: Antibacterial activity against vancomycin-resistant, teicoplanin sensitive Enterococcus faecalis HS0847 incubated for 24 hrs by broth microdilution method; assay type: functional
Enterococcus faecalis [6] = assay: Antibacterial activity against vancomycin-resistant, teicoplanin sensitive Enterococcus faecalis HS08257 incubated for 24 hrs by broth microdilution method; assay type: functional
Enterococcus faecalis [7] = assay: Antibacterial activity against vancomycin-resistant, teicoplanin sensitive Enterococcus faecalis VanB01 incubated for 24 hrs by broth microdilution method; assay type: functional
Enterococcus faecalis [8] = assay: Antibacterial activity against vancomycin-resistant, teicoplanin resistant Enterococcus faecalis HS0649 incubated for 24 hrs by broth microdilution method; assay type: functional
Staphylococcus aureus [9] = assay: Antimicrobial activity against methicillin and linezoid-resistant Staphylococcus aureus NRS271 incubated for 24 hrs by broth microdilution method; assay type: functional
Staphylococcus aureus [10] = assay: Antimicrobial activity against methicillin-resistant Staphylococcus aureus NRS100 incubated for 24 hrs by broth microdilution method; assay type: functional
Staphylococcus aureus [11] = assay: Antimicrobial activity against methicillin-resistant Staphylococcus aureus USA400 MW2 incubated for 24 hrs by broth microdilution method; assay type: functional
Enterococcus faecalis [12] = assay: Antibacterial activity against vancomycin-resistant, teicoplanin resistant Enterococcus faecalis HS06188 incubated for 24 hrs by broth microdilution method; assay type: functional
[13] = Metabolic stability in dog liver microsomes assessed metabolic bioavailability at 0.1 uM in presence of NADPH measured by LC-MS/MS analysis; assay type: ADME, Canis lupus familiaris, Microsome; settings: read-out: Stability
Staphylococcus aureus [14] = assay: Antibiofilm activity against methicillin-resistant Staphylococcus aureus USA300 LAC assessed as decrease in biofilm formation at 0.0625 ug/ml measured by crystal violet staining assay; assay type: functional, organism-based; settings: dose 0.0625 µg/ml
[15] = Selectivity index, ratio of IC50 for L02 cell cytotoxicity over MIC for vancomycin-susceptible methicillin-susceptible Staphylococcus aureus Newman; assay type: toxicity; settings: human, L02 cells
[16] = Metabolic stability in human liver microsomes assessed metabolic bioavailability at 0.1 uM in presence of NADPH measured by LC-MS/MS analysis; assay type: ADME, Microsome; settings: read-out: Stability
[17] = Metabolic stability in mouse liver microsomes assessed metabolic bioavailability at 0.1 uM in presence of NADPH measured by LC-MS/MS analysis; assay type: ADME, Microsome; settings: read-out: Stability
[18] = Metabolic stability in monkey liver microsomes assessed metabolic bioavailability at 0.1 uM in presence of NADPH measured by LC-MS/MS analysis; assay type: ADME, Macaca mulatta, Microsome; settings: rhesus monkey, read-out: Stability

## N#Cc1n[nH]c2c(=O)c3c(O)c(Cl)cc(Cl)c3sc12
Staphylococcus aureus [1]
  MIC: 2 µg/mL (≈ 6.41 µM)
Staphylococcus aureus [2]
  MIC: 2 µg/mL (≈ 6.41 µM)
Staphylococcus aureus [3]
  MIC: 2 µg/mL (≈ 6.41 µM)

## O=C(O)c1cn(C2CC2)c2cc(N3CCNCC3)c(F)cc2c1=O [CIPROFLOXACIN]
Staphylococcus aureus [1]
  MIC: 0.25 µg/mL (≈ 0.754 µM)
Staphylococcus aureus [2]
  MIC: 2 µg/mL (≈ 6.04 µM)
[4]
  IC50 at 72 h: 12.2 µM and 4.05 µg/mL
Staphylococcus aureus [3]
  MIC: 32 µg/mL (≈ 96.6 µM)

## O=c1c2[nH]nc(C(F)(F)F)c2oc2c(Cl)cc(Cl)c(O)c12
Staphylococcus aureus [1]
  MIC: 1 µg/mL (≈ 2.95 µM)
Staphylococcus aureus [2]
  MIC: 2 µg/mL (≈ 5.9 µM)
Staphylococcus aureus [3]
  MIC: 1 µg/mL (≈ 2.95 µM)

## O=C(c1cc(C(F)(F)F)n[nH]1)c1cc(Cl)c(F)cc1O
Staphylococcus aureus [1]
  MIC: 0.25 µg/mL (≈ 0.81 µM)
Enterococcus faecalis [5]
  MIC: 0.5 µg/mL (≈ 1.62 µM)
Staphylococcus aureus [2]
  MIC: 0.25 µg/mL (≈ 0.81 µM)
Staphylococcus aureus [3]
  MIC: 0.25 µg/mL (≈ 0.81 µM)
Enterococcus faecalis [6]
  MIC: 0.5 µg/mL (≈ 1.62 µM)
Enterococcus faecalis [7]
  MIC: 1 µg/mL (≈ 3.24 µM)
Enterococcus faecalis [8]
  MIC: 1 µg/mL (≈ 3.24 µM)
Staphylococcus aureus [9]
  MIC: > 128 µg/mL
Staphylococcus aureus [10]
  MIC: 0.25 µg/mL (≈ 0.81 µM)
Staphylococcus aureus [11]
  MIC: 0.25 µg/mL (≈ 0.81 µM)
Enterococcus faecalis [12]
  MIC: > 128 µg/mL

## N#Cc1cc(C(=O)c2cc(Cl)c(Cl)cc2O)[nH]n1
Staphylococcus aureus [1]
  MIC: 0.25 µg/mL (≈ 0.886 µM)
[13]
  Fh at 0.1 µM: 9.79%
Enterococcus faecalis [5]
  MIC: 0.5 µg/mL (≈ 1.77 µM)
Staphylococcus aureus [2]
  MIC: 0.25 µg/mL (≈ 0.886 µM)
[4]
  IC50 at 72 h: 10.7 µM and 3.02 µg/mL
Staphylococcus aureus [3]
  MIC: 0.25 µg/mL (≈ 0.886 µM)
Enterococcus faecalis [6]
  MIC: 0.25 µg/mL (≈ 0.886 µM)
Staphylococcus aureus [14]
  Activity: Active
[15]
  selectivity ratio: > 12
Enterococcus faecalis [7]
  MIC: 1 µg/mL (≈ 3.55 µM)
Enterococcus faecalis [8]
  MIC: 0.5 µg/mL (≈ 1.77 µM)
[16]
  Fh at 0.1 µM: 69.7%
Staphylococcus aureus [9]
  MIC: 1 µg/mL (≈ 3.55 µM)
Staphylococcus aureus [10]
  MIC: 0.5 µg/mL (≈ 1.77 µM)
Staphylococcus aureus [11]
  MIC: < 0.125 µg/mL
Enterococcus faecalis [12]
  MIC: > 128 µg/mL
[17]
  Fh at 0.1 µM: 10.2%
[18]
  Fh at 0.1 µM: 85.6%

## O=C(O)c1n[nH]c2c(=O)c3c(O)c(Cl)cc(Cl)c3oc12
Staphylococcus aureus [1]
  MIC: > 256 µg/mL
Staphylococcus aureus [2]
  MIC: > 256 µg/mL
Staphylococcus aureus [3]
  MIC: > 256 µg/mL

## Cc1cc(C(=O)c2cc(C#N)n[nH]2)c(O)cc1F
Staphylococcus aureus [1]
  MIC: 0.5 µg/mL (≈ 2.04 µM)
Staphylococcus aureus [2]
  MIC: 0.5 µg/mL (≈ 2.04 µM)
Staphylococcus aureus [3]
  MIC: 0.25 µg/mL (≈ 1.02 µM)

## O=c1c2ccccc2sc2c(C(F)(F)F)n[nH]c12
Staphylococcus aureus [1]
  MIC: > 256 µg/mL
Staphylococcus aureus [2]
  MIC: > 256 µg/mL
Staphylococcus aureus [3]
  MIC: > 256 µg/mL

## O=c1c2[nH]nc(C(F)(F)F)c2sc2c(Cl)cc(Cl)c(O)c12
Staphylococcus aureus [1]
  MIC: 2 µg/mL (≈ 5.63 µM)
Staphylococcus aureus [2]
  MIC: 2 µg/mL (≈ 5.63 µM)
Staphylococcus aureus [3]
  MIC: 1 µg/mL (≈ 2.82 µM)

## N#Cc1n[nH]c2c1S(=O)(=O)c1ccccc1C2=O
Staphylococcus aureus [1]
  MIC: > 256 µg/mL
Staphylococcus aureus [2]
  MIC: > 256 µg/mL
Staphylococcus aureus [3]
  MIC: > 256 µg/mL

## COC(=O)c1n[nH]c2c(=O)c3c(O)c(Cl)cc(Cl)c3oc12
Staphylococcus aureus [1]
  MIC: 4 µg/mL (≈ 12.2 µM)
Staphylococcus aureus [2]
  MIC: 16 µg/mL (≈ 48.6 µM)
Staphylococcus aureus [3]
  MIC: 16 µg/mL (≈ 48.6 µM)

## O=C(c1cc(C(F)(F)F)n[nH]1)c1cc(F)c(F)cc1O
Staphylococcus aureus [1]
  MIC: 0.5 µg/mL (≈ 1.71 µM)
Staphylococcus aureus [2]
  MIC: 0.5 µg/mL (≈ 1.71 µM)
Staphylococcus aureus [3]
  MIC: 1 µg/mL (≈ 3.42 µM)

## N#Cc1n[nH]c2c(=O)c3ccccc3sc12
Staphylococcus aureus [1]
  MIC: 8 µg/mL (≈ 35.2 µM)
Staphylococcus aureus [2]
  MIC: 32 µg/mL (≈ 141 µM)
Staphylococcus aureus [3]
  MIC: 32 µg/mL (≈ 141 µM)

## NC(=O)c1n[nH]c2c(=O)c3c(O)c(Cl)cc(Cl)c3oc12
Staphylococcus aureus [1]
  MIC: > 256 µg/mL
Staphylococcus aureus [2]
  MIC: > 256 µg/mL
Staphylococcus aureus [3]
  MIC: > 256 µg/mL

## Cc1n[nH]c2c(=O)c3c(O)c(Cl)cc(Cl)c3oc12
Staphylococcus aureus [1]
  MIC: > 256 µg/mL
Staphylococcus aureus [2]
  MIC: > 256 µg/mL
Staphylococcus aureus [3]
  MIC: > 256 µg/mL

## Cc1cc(C(=O)c2cc(C(F)(F)F)n[nH]2)c(O)cc1F
Staphylococcus aureus [1]
  MIC: 0.25 µg/mL (≈ 0.867 µM)
Staphylococcus aureus [2]
  MIC: 0.25 µg/mL (≈ 0.867 µM)
Staphylococcus aureus [3]
  MIC: 1 µg/mL (≈ 3.47 µM)

## O=C(c1cc(C(F)(F)F)n[nH]1)c1cc(Cl)c(Cl)cc1O
Staphylococcus aureus [1]
  MIC: 0.0625 µg/mL (≈ 0.192 µM)
[13]
  Fh at 0.1 µM: 7.07%
Enterococcus faecalis [5]
  MIC: 0.25 µg/mL (≈ 0.769 µM)
Staphylococcus aureus [2]
  MIC: 0.0625 µg/mL (≈ 0.192 µM)
[4]
  IC50 at 72 h: 2.57 µM and 0.84 µg/mL
Staphylococcus aureus [3]
  MIC: 0.0312 µg/mL (≈ 0.0961 µM)
Enterococcus faecalis [6]
  MIC: < 0.125 µg/mL
Staphylococcus aureus [14]
  Activity: Active
[15]
  selectivity ratio: > 13
Enterococcus faecalis [7]
  MIC: 0.5 µg/mL (≈ 1.54 µM)
Enterococcus faecalis [8]
  MIC: 0.5 µg/mL (≈ 1.54 µM)
[16]
  Fh at 0.1 µM: 42%
Staphylococcus aureus [9]
  MIC: > 128 µg/mL
Staphylococcus aureus [10]
  MIC: 0.5 µg/mL (≈ 1.54 µM)
Staphylococcus aureus [11]
  MIC: 0.25 µg/mL (≈ 0.769 µM)
Enterococcus faecalis [12]
  MIC: > 128 µg/mL
[17]
  Fh at 0.1 µM: 10.1%
[18]
  Fh at 0.1 µM: 28.6%

## O=C1c2[nH]nc(C(F)(F)F)c2S(=O)(=O)c2c(Cl)cc(Cl)c(O)c21
Staphylococcus aureus [1]
  MIC: 128 µg/mL (≈ 331 µM)
Staphylococcus aureus [2]
  MIC: 256 µg/mL (≈ 661 µM)
Staphylococcus aureus [3]
  MIC: 256 µg/mL (≈ 661 µM)

## N#Cc1cc(C(=O)c2cc(Cl)c(F)cc2O)[nH]n1
Staphylococcus aureus [1]
  MIC: 0.5 µg/mL (≈ 1.88 µM)
Staphylococcus aureus [2]
  MIC: 0.5 µg/mL (≈ 1.88 µM)
Staphylococcus aureus [3]
  MIC: 0.5 µg/mL (≈ 1.88 µM)

## O=C1c2ccccc2S(=O)(=O)c2c(C(F)(F)F)n[nH]c21
Staphylococcus aureus [1]
  MIC: > 256 µg/mL
Staphylococcus aureus [2]
  MIC: > 256 µg/mL
Staphylococcus aureus [3]
  MIC: > 256 µg/mL

## N#Cc1n[nH]c2c(=O)c3c(O)c(Cl)cc(Cl)c3oc12
Staphylococcus aureus [1]
  MIC: 4 µg/mL (≈ 13.5 µM)
Staphylococcus aureus [2]
  MIC: 8 µg/mL (≈ 27 µM)
Staphylococcus aureus [3]
  MIC: 8 µg/mL (≈ 27 µM)

## CN[C@H](CC(C)C)C(=O)N[C@H]1C(=O)N[C@@H](CC(N)=O)C(=O)N[C@H]2C(=O)N[C@H]3C(=O)N[C@H](C(=O)N[C@H](C(=O)O)c4cc(O)cc(O)c4-c4cc3ccc4O)[C@H](O)c3ccc(c(Cl)c3)Oc3cc2cc(c3O[C@@H]2O[C@H](CO)[C@@H](O)[C@H](O)[C@H]2O[C@H]2C[C@](C)(N)[C@H](O)[C@H](C)O2)Oc2ccc(cc2Cl)[C@H]1O [VANCOMYCIN]
Enterococcus faecalis [5]
  MIC: 0.25 µg/mL (≈ 0.173 µM)
[4]
  IC50 at 72 h: > 30 µM and > 43 µg/mL
Staphylococcus aureus [3]
  MIC: 8 µg/mL (≈ 5.52 µM)
Enterococcus faecalis [6]
  MIC: < 0.125 µg/mL
Enterococcus faecalis [7]
  MIC: 0.25 µg/mL (≈ 0.173 µM)
Enterococcus faecalis [8]
  MIC: 0.5 µg/mL (≈ 0.345 µM)
Staphylococcus aureus [11]
  MIC: < 0.125 µg/mL
Enterococcus faecalis [12]
  MIC: 2 µg/mL (≈ 1.38 µM)

## N#Cc1cc(C(=O)c2cc(Cl)cc(Cl)c2O)[nH]n1
Staphylococcus aureus [1]
  MIC: 2 µg/mL (≈ 7.09 µM)
Staphylococcus aureus [2]
  MIC: 2 µg/mL (≈ 7.09 µM)
Staphylococcus aureus [3]
  MIC: 2 µg/mL (≈ 7.09 µM)
